Data: patent publication US12545677B2, “Compounds useful as factor XIa inhibitors” (JANSSEN PHARMACEUTICA NV, priority 2020, dated 2026)
Like-named read-outs stand apart in the source and are kept apart here.

Columns and labels:
[1] = Reactive metabolite study in human liver microsomes (GSH/KCN trapping); assay type: in vitro ADME; conditions: human liver microsomes 1 mg/mL protein, 10 μM substrate, NADPH, 1 mM GSH, 1 mM KCN, 37° C., 60 min
Experimental: Reactive Metabolite Study in Human Liver Microsomes
The compound of formula (I-A) was assessed for bioactivation in HLM using GSH and KCN as trapping agents. The compound was incubated in human liver microsomes supplemented with NADPH, KCN and GSH at 37° C. for 60 min. The incubations were conducted with 1 mg/mL protein, 10 μM substrate, 1 mM GSH (non-labeled and labeled at 3:1) and KCN 1 mM (non-labeled and labeled at 3:1) in a total volume of 1 mL. Nefazodone (10 μM) was incubated under the same conditions as a positive control. After incubations, protein precipitation was performed for extraction of the metabolites by mixing with 5× volume of acetonitrile. The proteins were pelleted by centrifugation (3000 rpm, 10 minutes, 4° C.) and the supernatants were transferred into clean test tubes and evaporated to dryness under a gentle stream of nitrogen. The resulting residues were reconstituted in 300 μL of solvent mixture of water:acetonitrile (8:2 v/v) containing 0.1% formic acid prior to filtration using 0.45 μm nylon filter at 10,000×g at room temperature for 3 minutes. The filtrate was transferred to a 96-well plate for liquid chromatography/tandem mass spectrometric (LC-MS/MS) analysis.
LC-MS/MS analysis: Agilent 1260 Infinity UHPLC was coupled to a Bruker Q-TOF. The mass spectrometers were operated in a positive electrospray ionization mode. […]

[2] = Rat PK study; assay type: in vivo, Sprague-Dawley rats
Experimental: Biological Example 5: PK Studies
Animals: Male Sprague-Dawley rats (7-8 weeks old, body weight 250-300 g) were kept in plastic cages with free access to standard rat diet (Keaoxieli, Beijing, China) and water. The animals were maintained at a temperature of 20-25° C. with a 12-hour light/dark cycle and relative humidity of 40%-70% before the experiment.
Pharmacokinetics in rats: The cannulation of the jugular vein was pre-treated to the rats 2-3 days prior to the study. Test compound (dissolved in PEG400/water (1:1) or suspended in 0.5% HPMC) was administered orally via oral gavage at a dose of 5 or 10 mg/kg to 3 rats, and test compound (dissolved in 20% HPbCD or PEG400/water (1:1)) was injected to the tail vein at a dose of 1 or 2 mg/kg to 3 rats.
Blood samples (approximately 0.2 ml, each) were collected from the jugular vein at 0 (as a pre-dose), 5 (only for IV administration), 15, 30, 60, 120, 240, 360, 480 and 1440 mins post dose. A volume of 0.2 ml of heparinized 0.9% NaCl injectable solution (50 U/mL) was used to flush each cannula immediately after obtaining each blood sample, in order to prevent blood clotting and to compensate for fluid loss. Blood samples were separated by centrifugation, and approximately 0.1 ml aliquot of plasma was stored at −80° C. until analysis.
LC-MS/MS analysis: The analyte was assayed by a liquid chromatography coupled with tandem mass spectrometry (LC-MS/MS) method. The LC-MS/MS system consisted of a Shimadzu HPLC system (Kyoto, Japan) and API 5500 triple-quadrupole mass spectrometer equipped with a turbo electrospray ionization (ESI) source (AB Sciex, Toronto, Canada). LC conditions were as follows: column, Synergi 2.5μ Polar-RP 100A (50*3.0 mm) (Phenomenex, Torrance, CA); gradient elution at 0.5 mL/min with 5% acetonitrile in water containing 0.1% formic acid or 95% acetonitrile in water containing 0.1% formic acid; and injection volume, 10 μL. A multiple reaction monitoring (MRM) method was selected for quantitative analysis. The optimized transitions were Q1→Q3 and M1→M3 for analyte and internal standard, respectively. The instrumental parameters were set as follows: ion spray voltage: 5500 V; curtain gas: 30 psi; nebulizer gas: 50 psi; turbo gas: 50 psi; collision gas: 10 psi; temperature: 450° C.
Data analysis: Standard methods were used to calculate the pharmacokinetic parameters, such as the total area under the plasma concentration-time curve from time 0 to infinity (AUC0-t) and terminal half-life, using non-compartmental analysis (WinNonlin), the peak plasma concentration (Cmax) and time to reach Cmax (Tmax) were determined directly from the experimental data.

## O=C1C=C(c2c(-n3cnnn3)ccc(Cl)c2F)C[C@H]2CC[C@@H](c3ncc(-c4ccnc(CO)c4F)[nH]3)N12 [Compound of formula (I-A), (3S,8aR)-7-(3-Chloro-2-fluoro-6-(1H-tetrazol-1-yl)phenyl)-3-(5-(3-fluoro-2-(hydroxymethyl)pyridin-4-yl)-1H-imidazol-2-yl)-2,3,8,8a-tetrahydroindolizin-5(1H)-one]
[1]
  formation of GSH adducts or KCN adducts: did not form GSH adducts or KCN adducts
[2]; formulation vehicle: 0.5% HPMC at 10 mg/kg
  F: 53.4% (formulation vehicle: 0.5% HPMC at 10 mg/kg)
[2]; male, Sprague-Dawley, plasma, IV, 20% HPbCD at 2 mg/kg
  clearance: 19.6 mL/min/kg
[2]; male, Sprague-Dawley, plasma, IV, formulation vehicle: 20% HPbCD at 2 mg/kg, read-out: t1/2 (IV) (converted)
  half-life: 3.25 h
[2]; male, Sprague-Dawley, plasma, PO, 0.5% HPMC at 10 mg/kg
  Cmax: 3770 ng/mL
[2]; male, Sprague-Dawley, plasma, PO, 0.5% HPMC at 10 mg/kg, read-out: t1/2 (PO) (converted)
  half-life: 2.66 h
